Test results: patent publication US20260035384A1, “COMPOUND CONTAINING CYCLOHEXYL” (CHIA TAI TIANQING PHARMACEUTICAL GROUP CO., LTD., priority 2022, published 2026)
Residue numbers refer to the chain shown, from its start. pIC50: −log10 of the molar value. Read-outs that look alike come from different tables or passages of the source.

Experiments:
Mouse pharmacokinetics = format: in vivo, ICR mice
Description: ICR mice weighing 18-22 g were randomized into groups of 9 after 3-5 days of acclimatization, and then intragastrically given the test compound solution at a dose of 10 mg/kg and intravenously injected with the test compound solution at a dose of 1 mg/kg.
Blood sampling time points for the intragastrical administration group were 15 min, 0.5 h, 1 h, 2 h, 3 h, 4 h, 6 h, 8 h, 10 h, and 24 h, and blood sampling time points for the intravenous injection administration group were […], 15 min, 0.5 h, 1 h, 2 h, 4 h, 6 h, 8 h, 10 h, and 24 h; blood was collected from the orbit to prepare plasma samples to be tested. 30 μL of each of the plasma samples to be tested and a standard curve sample were taken, and an acetonitrile solution containing an internal standard was added. Supernatants were obtained by protein precipitation, diluted, and then assayed by LC/MS/MS. Pharmacokinetic parameters were fitted using a non-compartmental model (see Table 6).

AR in VCaP cells = target: T1, AR in VCaP cells (Homo sapiens, UniProt P10275); test: Assay on degradation activity for AR in VCaP cells (HTRF human androgen receptor detection kit); format: cell-based; details: 24 h incubation
T1 construct: Assay on Degradation Activity for AR in VCaP Cells; endogenous in cells; host or cells: VCaP cells
T1 sequence (P10275 1-920): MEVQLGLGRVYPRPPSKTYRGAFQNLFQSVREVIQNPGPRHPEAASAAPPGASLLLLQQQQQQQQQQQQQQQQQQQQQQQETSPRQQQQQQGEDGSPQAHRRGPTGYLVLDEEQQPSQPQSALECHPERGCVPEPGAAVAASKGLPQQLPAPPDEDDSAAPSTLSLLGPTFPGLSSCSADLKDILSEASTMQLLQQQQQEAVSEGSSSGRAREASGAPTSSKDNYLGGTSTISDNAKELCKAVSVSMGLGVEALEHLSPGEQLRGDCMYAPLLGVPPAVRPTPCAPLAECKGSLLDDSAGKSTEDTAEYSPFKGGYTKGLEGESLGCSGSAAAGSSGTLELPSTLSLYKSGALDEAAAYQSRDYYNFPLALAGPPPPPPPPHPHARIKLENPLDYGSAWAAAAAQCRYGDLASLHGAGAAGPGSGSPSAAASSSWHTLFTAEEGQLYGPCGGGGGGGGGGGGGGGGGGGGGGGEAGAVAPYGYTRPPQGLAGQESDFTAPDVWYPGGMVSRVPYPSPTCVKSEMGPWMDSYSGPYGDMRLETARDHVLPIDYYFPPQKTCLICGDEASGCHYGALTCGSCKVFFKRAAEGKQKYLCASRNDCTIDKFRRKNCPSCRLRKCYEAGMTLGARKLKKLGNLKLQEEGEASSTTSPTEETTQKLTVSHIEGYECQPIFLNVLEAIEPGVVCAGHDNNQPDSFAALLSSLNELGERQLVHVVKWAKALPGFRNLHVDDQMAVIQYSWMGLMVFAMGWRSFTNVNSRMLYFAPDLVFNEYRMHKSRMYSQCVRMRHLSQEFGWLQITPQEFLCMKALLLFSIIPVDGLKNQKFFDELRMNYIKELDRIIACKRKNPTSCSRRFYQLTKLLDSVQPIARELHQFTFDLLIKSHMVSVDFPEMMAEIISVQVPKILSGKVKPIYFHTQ
Procedure, shortened: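 VCaP cells seeded overnight in 2% CSS-FBS phenol red-free DMEM, then treated 24 h with compound at 1000 nM–0.977 nM final, in duplicate. Lysates probed with AR Eu cryptate/d2 antibody HTRF (2 h, 25° C., 665/620 nm); DC50 and Dmax from four-parameter dose-response fits.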

VCaP cells = test: Assay on inhibitory activity for VCaP cell proliferation (CCK-8); format: cell-based; details: 168 h incubation
Procedure, shortened: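 VCaP cells seeded at 1×10^5 cells/mL in phenol red-free DMEM with 5% charcoal-stripped FBS, treated in duplicate at 10000–0.61 nM final. After 168 h incubation, viability was read with CCK-8.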

LNCaP cells = test: Assay on inhibitory activity for LNCaP cell proliferation (CCK-8); format: cell-based; details: 168 h incubation
Procedure, shortened: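 Cells seeded at 1×10^5 cells/mL in phenol red-free 1640 with 2% CSS-FBS, treated at final 10000 nM-0.61 nM in duplicate. After 168 h incubation, viability read with CCK-8.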

[1] = In vitro stability in liver microsome; format: in vitro ADME; details: human liver microsome 0.5 mg/mL, NADPH, 37° C.
Description: Liver microsome incubation samples (species: human, monkey, rat, and mouse) were prepared by mixing a PBS buffer (pH=7.4), a liver microsome solution (0.5 mg/mL), a test compound, and an NADPH+MgCl2 solution and incubated at 37° C. and 300 rpm for 1 h. Zero-hour samples were prepared by mixing a PBS buffer (pH=7.4), a liver microsome solution (0.5 mg/mL), and a test compound. An acetonitrile solution containing an internal standard was added to the samples, and supernatants were prepared by protein precipitation, diluted, and then assayed by LC/MS/MS.

AR in LNCaP cells = target: T2, AR in LNCaP cells (Homo sapiens, UniProt P10275, T878A); test: Assay on degradation activity for AR in LNCaP cells (HTRF human androgen receptor detection kit); format: cell-based; details: 24 h incubation
T2 construct: Assay on Degradation Activity for AR in LNCaP Cells; endogenous in cells; host or cells: LNCaP cells
T2 sequence (P10275 1-920 T878A): T1 sequence (P10275 1-920) with T878A
Procedure, shortened: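 LNCaP cells seeded in 2% CSS-FBS phenol red-free 1640 medium overnight, then treated in duplicate with 500 nM–0.488 nM compound for 24 h. AR in lysates quantified by HTRF (Eu cryptate/d2 antibodies, 2 h, 25 °C, 665/620 nm); DC50 and Dmax from four-parameter fits.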

[2] = ICR, mouse, plasma, iv, 1 mg/kg, Mouse i.v. 1 mpk
[3] = ICR, mouse, plasma, iv, 1 mg/kg, Mouse i.v. 1 mpk, read-out: AUC
[4] = ICR, mouse, plasma, po, 10 mg/kg, Mouse i.g. 10 mpk vs i.v. 1 mpk
[5] = ICR, mouse, plasma, po, 10 mg/kg, Mouse i.g. 10 mpk, read-out: AUC
[6] = ICR, mouse, plasma, po, 10 mg/kg, Mouse i.g. 10 mpk, read-out: Cmax

Row | clearance (Mouse pharmacokinetics; [2]) | half-life (Mouse pharmacokinetics; [2]) | AUC (Mouse pharmacokinetics; [3]) | bioavailability (Mouse pharmacokinetics; [4]) | AUC (Mouse pharmacokinetics; [5]) | Cmax (Mouse pharmacokinetics; [6]) | DC50 (AR in VCaP cells) | pIC50 (VCaP cells; Homo sapiens, VCaP, 168 h) | pIC50 (LNCaP cells; Homo sapiens) | Human liver microsome Residuals at 60 min (%) [1] | t1/2 (Mouse pharmacokinetics; Mouse i.g. 10 mpk) | Compound | pIC50 (VCaP cells; Homo sapiens) | further results
1 | 4.72 mL/min/kg | 7.28 h | 3160 ng·h/mL | 46% | 14600 ng·h/mL | 1160 ng/mL | ≤ 1 nM | > 6.00 | > 6.00 | >85% |  | N#Cc1ccc(O[C@H]2CC[C@H](NC(=O)c3ccc(N4CCC(CN5Cc6ccc7c(C8CCC(=O)NC8=O)noc7c6C5)CC4)nn3)CC2)cc1Cl (stereo partly drawn) [Compound 17] |  | half-life (Mouse pharmacokinetics; ICR, mouse, plasma, po, 10 mg/kg, Mouse i.g. 10 mpk): 6.82 h
2 |  |  |  |  |  |  | ≤ 1 nM |  |  | >85% | 5.47 h | N#Cc1ccc(O[C@H]2CC[C@H](NC(=O)c3ccc(N4CCN(CC5Cc6ccc7c(C8CCC(=O)NC8=O)noc7c6C5)CC4)nn3)CC2)cc1Cl (stereo partly drawn) [Compound 27] |  | AUC (Mouse pharmacokinetics; Mouse i.g. 10 mpk): 20072 ng·h/mL; Cmax (Mouse pharmacokinetics; Mouse i.g. 10 mpk): 1503 ng/mL; F(%) (Mouse pharmacokinetics; Mouse i.g. 10 mpk vs i.v. 1 mpk): 35.85%; AUC (Mouse pharmacokinetics; Mouse i.v. 1 mpk, 1 mg/kg): 5599 ng·h/mL; Cl (Mouse pharmacokinetics; Mouse i.v. 1 mpk, 1 mg/kg): 2.63 mL/min/kg; t1/2 (Mouse pharmacokinetics; Mouse i.v. 1 mpk, 1 mg/kg): 7.6 h; pIC50 (VCaP cells): > 7.00; pIC50 (LNCaP cells): > 6.00
3 | 2.78 mL/min/kg | 7.58 h | 5350 ng·h/mL | 24.8% | 13200 ng·h/mL | 886 ng/mL | ≤ 1 nM | > 7.00 | > 6.00 | >85% | 11 h | N#Cc1ccc(O[C@H]2CC[C@H](NC(=O)c3ccc(N4CCN(CC5Cc6ccc7c(C8CCC(=O)NC8=O)noc7c6C5)CC4)nn3)CC2)cc1Cl (stereo partly drawn) [Compound 26] |  | 

Row | Compound | clearance (Mouse pharmacokinetics; [2]) | half-life (Mouse pharmacokinetics; [2]) | AUC (Mouse pharmacokinetics; [3]) | bioavailability (Mouse pharmacokinetics; [4]) | AUC (Mouse pharmacokinetics; [5]) | Cmax (Mouse pharmacokinetics; [6]) | DC50 (AR in VCaP cells) | pIC50 (VCaP cells; Homo sapiens, VCaP, 168 h) | pIC50 (LNCaP cells; Homo sapiens) | Human liver microsome Residuals at 60 min (%) [1] | t1/2 (Mouse pharmacokinetics; Mouse i.g. 10 mpk) | pIC50 (VCaP cells; Homo sapiens) | further results
4 | N#Cc1ccc(O[C@H]2CC[C@H](NC(=O)c3ccc(N4CCC(N5CC(N6Cc7ccc8c(C9CCC(=O)NC9=O)noc8c7C6)C5)CC4)nn3)CC2)cc1Cl (stereo partly drawn) [Compound 94] |  |  |  |  |  |  | ≤ 1 nM |  | > 6.00 | >85% |  | > 7.00 | 
5 | N#Cc1ccc(O[C@H]2CC[C@H](NC(=O)c3ccc(N4CCC(N5CC(CN6Cc7ccc8c(C9CCC(=O)NC9=O)noc8c7C6)C5)CC4)nn3)CC2)cc1Cl (stereo partly drawn) [Compound 90] |  |  |  |  |  |  | ≤ 1 nM |  |  | >85% |  | > 8.00 | DC50 (AR in LNCaP cells; HTRF): ≤ 20 nM; Dmax (AR in LNCaP cells; maximum degradation rate): > 80%
